{"source": "patent US20220340685A1", "about": "“COMBINATION THERAPY WITH ENTPD2 AND CD73 ANTIBODIES” (Novartis AG, priority 2019, published 2022)", "test_system": "human ENTPD2 engineered B16LM3 clone B5", "experiment": "Human ENTPD2 engineered B16LM3 clone B5 model, combination with A2AR antagonist NIR178", "format": "in vivo", "details": "NIR178 p.o. 4 days on and 3 days off, 50 or 200 mg/kg; antibody or isotype 10 mg/kg i.v. day 1", "method": "Human ENTPD2-engineered B16LM3 clone B5 was established in female C57BL/6 mice by subcutaneous injection of 0.5×10^6 cells into the right flank of each mouse. Once tumors reached approximately 50 mm^3, mice were randomized according to tumor volume into treatment groups (n=8 per group). Mice received an intravenous (i.v.) treatment of either anti-ENTPD2 mAb1 at a final dose of 10/mg/kg or a non-specific human IgG1 isotype control 10 mg/kg on day 1 of study. NIR178 was administered per os (p.o.) for 4 days on and 3 days off, starting at the beginning of study at either 50 mg/kg or 200 mg/kg. All doses were adjusted to individual mouse body weights. The study was carried out for thirteen days post treatment initiation and tumor volumes were assessed every other day to assess efficacy."}
{"smiles": "Nc1nc(-n2cccn2)nc(-n2cccn2)c1Br", "note": "[NIR178, 5-bromo-2,6-di-(1H-pyrazol-1-yl)pyrimidine-4-amine]", "values": [{"measurement": "anti-tumor efficacy", "value": "No significant anti-tumor efficacy"}]}
